{"source": "ChEMBL document CHEMBL3046698", "about": "“Synergistic application of target structure-based alignment and 3D-QSAR study of protein tyrosine phosphatase 1B (PTP1B) inhibitors” (Med Chem Res, 2011)", "note": "Where “and” joins values, the source holds several entries; their conditions need not be identical. Equal entries are not always repeated."}
{"target": "T1, Tyrosine-protein phosphatase non-receptor type 1 (Homo sapiens, UniProt P18031)", "T1 sequence (P18031 whole entry)": "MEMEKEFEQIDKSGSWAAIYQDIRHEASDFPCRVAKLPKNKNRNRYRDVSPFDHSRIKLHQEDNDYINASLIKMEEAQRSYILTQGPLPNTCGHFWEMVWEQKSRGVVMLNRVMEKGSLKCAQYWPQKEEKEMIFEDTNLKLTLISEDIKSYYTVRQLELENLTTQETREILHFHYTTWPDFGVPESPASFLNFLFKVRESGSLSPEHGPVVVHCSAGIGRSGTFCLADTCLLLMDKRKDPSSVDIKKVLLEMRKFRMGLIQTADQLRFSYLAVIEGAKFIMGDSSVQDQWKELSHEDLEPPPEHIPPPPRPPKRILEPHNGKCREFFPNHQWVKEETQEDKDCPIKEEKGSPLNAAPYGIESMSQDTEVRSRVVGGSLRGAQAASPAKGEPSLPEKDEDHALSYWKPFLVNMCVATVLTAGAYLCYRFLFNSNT", "description": "Inhibition of PTP1B (unknown origin)"}
{"smiles": "COC(=O)c1c(O)cccc1OCCCCNC(=O)[C@H](Cc1ccc(OC(C)C(=O)O)c(C(=O)O)c1)NC(=O)[C@H](Cc1ccccc1)NC(=O)OC(C)(C)C", "note": "(stereo partly specified)", "Ki": "0.162 µM"}
{"smiles": "CCc1cc(C[C@H](NC(C)=O)C(=O)NCCCCC(=O)NCCc2ccccc2)ccc1N(C(=O)C(=O)O)c1ccccc1C(=O)O", "Ki": "3.39 µM and 3.4 µM"}
{"smiles": "CCc1cc(C[C@H](NC(C)=O)C(=O)NCCCCC(=O)NC(Cc2ccccc2)C(N)=O)ccc1N(C(=O)C(=O)O)c1ccccc1C(=O)O", "note": "(stereo partly specified)", "Ki": "1.29 µM and 1.3 µM"}
{"smiles": "CCc1cc(C[C@H](NC(C)=O)C(=O)N[C@H](CCSC)C(=O)O)ccc1N(C(=O)C(=O)O)c1ccccc1C(=O)O", "Ki": "1.74 µM and 1.7 µM"}
{"smiles": "CCc1cc(C[C@H](NC(C)=O)C(=O)NCc2ccc(Cl)cc2)ccc1N(C(=O)C(=O)O)c1ccccc1C(=O)O", "Ki": "1.2 µM"}
{"smiles": "CCc1cc(C[C@H](NC(C)=O)C(=O)NCc2ccc(OC)cc2)ccc1N(C(=O)C(=O)O)c1ccccc1C(=O)O", "Ki": "4.79 µM and 4.7 µM"}
{"smiles": "COC(=O)c1c(O)cccc1OCCCCNC(=O)[C@H](Cc1ccc(OC(C(N)=O)C(=O)O)cc1)NC(=O)OC(C)(C)C", "note": "(stereo partly specified)", "Ki": "13.8 µM"}
{"smiles": "CC(=O)C(=O)N(c1ccccc1C(=O)O)c1cccc(C)c1C", "Ki": "93.3 µM and 93 µM"}
{"smiles": "CC(=O)C(=O)N(c1ccccc1C(=O)O)c1cccc2ccccc12", "Ki": "24 µM"}
{"smiles": "CC(=O)C(=O)N(c1ccc2ccccc2c1)c1ccccc1C(=O)O", "Ki": "38.9 µM and 39 µM"}
{"smiles": "CC(=O)C(=O)N(c1ccccc1C(=O)O)c1cccc2ccc(O)cc12", "Ki": "17 µM"}
{"smiles": "CC(=O)C(=O)N(c1ccccc1C(=O)O)c1cccc2c1CCCC2", "Ki": "74.1 µM and 74 µM"}
{"smiles": "CCc1ccccc1N(C(=O)C(C)=O)c1ccccc1C(=O)O", "Ki": "60.3 µM and 60 µM"}
{"smiles": "CC(=O)C(=O)N(c1ccccc1C(=O)O)c1ccccc1C(C)C", "Ki": "35.5 µM and 35 µM"}
{"smiles": "CC(=O)C(=O)N(c1ccccc1Cc1ccccc1)c1ccccc1C(=O)O", "Ki": "24 µM"}
{"smiles": "CC(=O)C(=O)N(c1ccccc1CCO)c1ccccc1C(=O)O", "Ki": "17 µM"}
{"smiles": "CC(=O)C(=O)N(c1ccccc1/C=C/C(N)=O)c1ccccc1C(=O)O", "Ki": "11 µM"}
{"smiles": "CC(=O)C(=O)N(c1ccccc1C(=O)O)c1ccccc1N1CCCCC1", "Ki": "14.1 µM and 14 µM"}
{"smiles": "COC(=O)c1c(O)cccc1OCCCCNC(=O)C(Cc1ccc(N(CC(C(=O)O)c2ccccc2)C(=O)C(=O)O)cc1)NC(=O)OC(C)(C)C", "note": "(stereo unspecified)", "Ki": "15.1 µM and 15.2 µM"}
{"smiles": "CCC(CC(=O)O)N(C(=O)C(=O)O)c1ccc(CC(NC(=O)OC(C)(C)C)C(=O)NCCCCOc2cccc(O)c2C(=O)OC)cc1", "note": "(stereo unspecified)", "Ki": "1.82 µM and 1.8 µM"}
{"smiles": "COC(=O)c1c(O)cccc1OCCCCNC(=O)[C@H](Cc1ccc(OC(C(=O)O)C(=O)NC2CC2)cc1)NC(=O)OC(C)(C)C", "note": "(stereo partly specified)", "Ki": "8.51 µM"}
